The results in this text go back to patent US4973578A, “Synthetic peptides derived from the alpha-subunit of human lycoprotein hormones” (Mayo Foundation for Medical Education and Research, priority 1988, dated 1990).

This experiment deals with thyroid stimulating immunoglobulin (TSI) stimulated cAMP in FRTL-5 cells. Put plainly: TSI bioassay: inhibition of thyroid stimulating immunoglobulin activity (PEG-precipitated patient immunoglobulin) in FRTL-5 cells. In kind it is cell-based, rat. As to conditions: for Percent inhibition of TSI activity, mean: mean of patient samples tested. The source says:
Ten patients (8 women and 2 men) with Graves' disease and high levels of TSI were identified after evaluation by FRTL-5 cell bioassay in the clinical chemistry laboratory. (FRTL-5 bioassay described below employing known TSH receptor recognition of various species hormones) Consecutive samples that had indices greater than 15 and sufficient serum remaining for further evaluation were chosen. Seven of the 10 had serum thyroxine values above the normal range and 9 of 10 had TSH levels below the euthyroid range by sensitive immunoradiometric assay [Boots-Celltech Sucrosep, Berkshire, UK, conducted as described in Klee and Hay, J. Clin. Endocrinol. Metab., 64:461 (1987)]. (FIG. 5). For comparison serum from 13 normal subjects was examined for TSI at the same serum dilution as the patient sera. (FIG. 5).
FRTL-5 cells were maintained in Ham's F-12 medium supplemented with 5% calf serum and a 6-hormone preparation (6H) as described by Ambesi-Impiombato, supra. The cells were removed from flasks enzymatically, plated at 150,000 cells per well in 24 well plates, and grown in 6H medium for 4 days. The medium was then replaced with fresh medium supplemented with insulin only (1H) for 7 days prior to assay. The bioassay was a modification of that described by Kasagi et al., supra. Briefly, immunoglobulins were precipitated from 2 ml of serum with 6 ml 20% polyethylene glycol 6000 (Baker, Phillipsburg, N.J.), centrifuged at 2800×g for 20 minutes, and then reconstituted in 2.4 ml buffer (NaCl-free Hanks balanced salt solution, NaCl-free HBSS), containing 1 mM iso-butyl-methyl-xanthine (IBMX, Sigma, St. Louis) and 1.5% BSA. After washing the cells with HBSS, 150 ul of buffer was added to the wells plus varying concentrations of synthetic α-subunit peptides followed immediately by 150 ul of the crude immunoglobulin extract. The plates were incubated for 2 hours at 37° C., 5% CO2 after which 100 ul of medium was removed and diluted in 900 ul 50 mM sodium acetate buffer, pH 6.2. cAMP content was determined by radioimmunoassay using the procedures described in Wray and Glinos, supra and Steiner et al., supra. Basal cAMP levels were determined in the absence of immunoglobulin extract and synthetic peptides for each plate. Basal and maximum levels were determined in quadruplicate; peptide effects were measured in duplicate at each concentration.
Percent increase in cAMP levels over basal was calculated as below: [formula]
Percent inhibition of TSI activity by the synthetic α-subunit peptides was calculated as follows: [formula]
cAMP levels in the presence of synthetic peptides were compared to maximum levels using student's T test for paired samples. Mean percent inhibition between different peptides were compared with student's T test for independent samples. Correlations were determined by Pearson's R.

Several values for one entry are separate records, joined by “and”; a condition that tells them apart may be missing. Equal values may be shown once. Residues, ends and D or L forms follow the SMILES beside them.

Consider `CSCC[C@H](NC(=O)[C@H](CS)NC(=O)[C@H](CCC(N)=O)NC(=O)[C@@H](N)CC(C)C)C(=O)NCC(=O)N[C@@H](CS)C(=O)N[C@@H](CS)C(=O)N[C@@H](Cc1ccccc1)C(=O)N[C@@H](CO)C(=O)N[C@@H](CCCNC(=N)N)C(=O)N[C@@H](C)C(=O)N[C@@H](Cc1ccc(O)cc1)C(=O)N1CCC[C@H]1C(=O)N[C@H](C(=O)N1CCC[C@H]1C(=O)N[C@@H](CC(C)C)C(=O)N[C@@H](CCCNC(=N)N)C(=O)N[C@@H](CO)C(=O)N[C@@H](CCCCN)C(=O)N[C@@H](CCCCN)C(=O)N[C@H](C(N)=O)[C@@H](C)O)[C@@H](C)O` [α26-46, Leu--Gln--Cys--Met--Gly--Cys--Cys--Phe--Ser--Arg--Ala--Tyr--Pro--Thr--Pro--Leu--Arg--Ser--Lys--Lys--Thr--(NH2)] (H-LQCMGCCFSRAYPTPLRSKKT-NH2), for which the “patient samples in which peptide showed an inhibitory effect / lowered cAMP levels” value (Graves' disease patient samples) was 10 of 10. For the same compound, the “Percent inhibition of TSI activity” value runs as follows: (Pt. sample A, peptide 66.7 ug/ml) 62.1%; (Pt. sample A, peptide 133 ug/ml) 125.3±3% and 125.3%; (Pt. sample B, peptide 66.7 ug/ml) 14.3%; (Pt. sample B, peptide 133 ug/ml) 125.0%; (Pt. sample C, peptide 66.7 ug/ml) 29.1%; (Pt. sample C, peptide 133 ug/ml) 86.4%. For the same compound, the “Percent inhibition of TSI activity” value by setting is: (Pt. sample D, peptide 66.7 ug/ml) 9.1%; (Pt. sample D, peptide 133 ug/ml) 85.7%; (Pt. sample E, peptide 66.7 ug/ml) 42.0%; (Pt. sample E, peptide 133 ug/ml) 85.9%; (Pt. sample F, peptide 66.7 ug/ml) 19.8%; (Pt. sample F, peptide 133 ug/ml) 57.8%. Also, the “Percent inhibition of TSI activity” value is 43.1% (Pt. sample G, peptide 66.7 ug/ml); 77.2% (Pt. sample G, peptide 133 ug/ml); 14.7% (Pt. sample H, peptide 66.7 ug/ml); 52.5% (Pt. sample H, peptide 133 ug/ml); 4.2% (Pt. sample I, peptide 66.7 ug/ml); 38±9.7% and 38.0% (Pt. sample I, peptide 133 ug/ml). In addition, the “Percent inhibition of TSI activity” value was 36.0% (Pt. sample J, peptide 66.7 ug/ml) and 57.7% (Pt. sample J, peptide 133 ug/ml). In addition, the “Percent inhibition of TSI activity, mean” value reads like this: (peptide 66.7 ug/ml) 27.5%; (peptide 133 ug/ml) 79.1±8.8% and 79.1%. The “patient Ig samples with statistically significant inhibition of cAMP” value (peptide 133 ug/ml) amounted to 10.
